Experimental data as given in ChEMBL document CHEMBL5724696, “Autophagy assay results for EUbOPEN Chemogenomics Library” (2024).
Where “and” joins values, the source holds several entries; their conditions need not be identical. Identical values can stand only once.

Columns and labels:
Format in all cases: functional, Homo sapiens
TERT-RPE1 = assay: (§1) Here: values are normalized to the negative (DMSO; defined as 0% autophagy induction) and positive (250nM Torin1; mTOR inhibitor; defined as maximal inducer of autophagy = 100%) control compounds and represented as % of autophagy induction. […] The impact of autophagy induction on cells is complex and depends on the affected target. As such, the magnitude of a phenotype may not be equally mirrored in the %-value of autophagy induction and vice versa. The dynamics of the induction may indicate the mode of activation: e.g. activation via phosphorylation or a signaling cascade may occur fast, while activation via transcription factors may take considerably longer. […] Of note, treatment concentrations may be sub-optimal for specific compounds, leading to false negative annotations.; conditions: Culturing Media DMEM/F12 (1:1), 1 % Penicillin/Streptomycin, 10% Fetal bovin serum Add-On: No, Screening Media Control DMEM/F12 (1:1), Screening Media Samples DMEM/F12 (1:1)
U2OS [1] = assay: as §1; conditions: Culturing Media DMEM, 1 % Penicillin/Streptomycin, 10% Fetal bovin serum Add-On: No, Screening Media Control DMEM, Screening Media Samples DMEM
U2OS [2] = assay: as §1; conditions: Culturing Media DMEM, 1 % Penicillin/Streptomycin, 10% Fetal bovin serum Add-On: No, Screening Media Control DMEM, Screening Media Samples DMEM; remark: listed apart in the source
[3] = Compound Concentration 0.5 uM, Timepoint 12 hours
[4] = Compound Concentration 0.5 uM, Timepoint 24 hours
[5] = Compound Concentration 0.5 uM, Timepoint 36 hours
[6] = Compound Concentration 0.5 uM, Timepoint 60 hours
[7] = Compound Concentration 2 uM, Timepoint 12 hours
[8] = Compound Concentration 2 uM, Timepoint 24 hours
[9] = Compound Concentration 2 uM, Timepoint 36 hours
[10] = Compound Concentration 2 uM, Timepoint 60 hours
[11] = Compound Concentration 10 uM, Timepoint 12 hours
[12] = Compound Concentration 10 uM, Timepoint 24 hours
[13] = Compound Concentration 10 uM, Timepoint 36 hours
[14] = Compound Concentration 10 uM, Timepoint 60 hours

SMILES	autophagy induction (U2OS [1]; [3]) [%]	autophagy induction (U2OS [1]; [4]) [%]	autophagy induction (U2OS [1]; [5]) [%]	autophagy induction (U2OS [1]; [6]) [%]	autophagy induction (U2OS [1]; [7]) [%]	autophagy induction (U2OS [1]; [8]) [%]	autophagy induction (U2OS [1]; [9]) [%]	autophagy induction (U2OS [1]; [10]) [%]	autophagy induction (U2OS [1]; [11]) [%]	autophagy induction (U2OS [1]; [12]) [%]	autophagy induction (U2OS [1]; [13]) [%]	autophagy induction (U2OS [1]; [14]) [%]	autophagy induction (U2OS [2]; [3]) [%]	autophagy induction (U2OS [2]; [4]) [%]	autophagy induction (U2OS [2]; [5]) [%]	autophagy induction (U2OS [2]; [6]) [%]	autophagy induction (U2OS [2]; [7]) [%]	autophagy induction (U2OS [2]; [8]) [%]	autophagy induction (U2OS [2]; [9]) [%]	autophagy induction (U2OS [2]; [10]) [%]	other results
COc1ccc(CNC(=O)c2cc(-c3cncc(Cl)c3)cnc2-c2ccccn2)nc1OC [MK-1064]	6.6807	0.4544	-59.909	-3.175	5.723	-2.067	2463.06	-2.86	2.927	-3.704	1020.2	-2.212	12.3622	4.385	3.479	-7.04	9.573	2.106	1.004	0.7274	autophagy induction (TERT-RPE1; Compound Concentration 0.5 uM, Timepoint 12 hours, 12 h, 0.5 µM): -1.649% and -1.281%; autophagy induction (TERT-RPE1; Compound Concentration 0.5 uM, Timepoint 24 hours, 24 h, 0.5 µM): -0.5797% and -3.213%; autophagy induction (TERT-RPE1; Compound Concentration 0.5 uM, Timepoint 36 hours, 36 h, 0.5 µM): -3.034% and -3.261%; autophagy induction (TERT-RPE1; Compound Concentration 0.5 uM, Timepoint 60 hours, 60 h, 0.5 µM): -3.035% and -4.321%; autophagy induction (TERT-RPE1; Compound Concentration 2 uM, Timepoint 12 hours, 12 h, 2 µM): 3.536% and 7.073%; autophagy induction (TERT-RPE1; Compound Concentration 2 uM, Timepoint 24 hours, 24 h, 2 µM): -0.496% and 6.728%; autophagy induction (TERT-RPE1; Compound Concentration 2 uM, Timepoint 36 hours, 36 h, 2 µM): -2.12% and 5.645%; autophagy induction (TERT-RPE1; Compound Concentration 2 uM, Timepoint 60 hours, 60 h, 2 µM): -0.3513% and 7.579%; autophagy induction (TERT-RPE1; Compound Concentration 10 uM, Timepoint 12 hours, 12 h, 10 µM): 0.9286% and 0.4822%; autophagy induction (TERT-RPE1; Compound Concentration 10 uM, Timepoint 24 hours, 24 h, 10 µM): 1.419% and 1.256%; autophagy induction (TERT-RPE1; Compound Concentration 10 uM, Timepoint 36 hours, 36 h, 10 µM): 0.4472% and 1.634%; autophagy induction (TERT-RPE1; Compound Concentration 10 uM, Timepoint 60 hours, 60 h, 10 µM): 0.346% and 3.096%; autophagy induction (U2OS [2]; [11]): 0.3207%; autophagy induction (U2OS [2]; [12]): -2.025%; autophagy induction (U2OS [2]; [13]): -1.481%; autophagy induction (U2OS [2]; [14]): 2.712%
COc1ccc(C2(O)OC(=O)C(c3ccc4c(c3)OCO4)=C2Cc2cc(OC)c(OC)c(OC)c2)cc1 (configuration not stated) [PD-156707]	-0.3009	0.4369	-0.07956	-0.9865	-2.496	-1.926	-0.6682	-1.242	-0.3825	-1.441	-0.8744	-0.2319	2.427	7.779	2.534	-0.8382	-5.016	3.24	-2.65	-6.1634	autophagy induction (TERT-RPE1; [3]): -7.977%; autophagy induction (TERT-RPE1; [4]): -6.312%; autophagy induction (TERT-RPE1; [5]): -1.3569%; autophagy induction (TERT-RPE1; [6]): 6.352%; autophagy induction (TERT-RPE1; [7]): -3.2518%; autophagy induction (TERT-RPE1; [8]): -7.638%; autophagy induction (TERT-RPE1; [9]): -7.617%; autophagy induction (TERT-RPE1; [10]): -7.701%; autophagy induction (TERT-RPE1; [11]): -8.81%; autophagy induction (TERT-RPE1; [12]): -9.172%; autophagy induction (TERT-RPE1; [13]): -8.276%; autophagy induction (TERT-RPE1; [14]): -11.0822%; autophagy induction (U2OS [2]; [11]): -12.4956%; autophagy induction (U2OS [2]; [12]): -10.1664%; autophagy induction (U2OS [2]; [13]): -12.3712%; autophagy induction (U2OS [2]; [14]): -18.4825%
